Like-named read-outs stand apart in the source and are kept apart here.
Experiments:
sodium channel = test: Temperature-dependent circular dichroism at 222 nM (helix-coil transition); assay type: biochemical, beef (bovine brain); conditions: 222 nm wavelength; for % Loss of Helix (35° to 40° C.) / % Loss of Helix (30° to 35° C.): fresh AChE; for % Loss of Helix (35° to 40° C.): control 4.7 (pilocarpine), 4.6 (lidocaine); for % Loss of Helix (30° to 35° C.): control 21.8 (pilocarpine), 12.1 (lidocaine); for effect on alpha helix from 35° C. to 40° C. / effect on helical transition normally observed between 30°-35° C.: beef brain nerve cell protein preparation; for effect on helical transition normally observed between 30°-35° C.: 15° C. to 60° C.
From the text: As disclosed in PCT/US93/05792, published Jan. 6, 1994, one can identify compounds with potential analgesic effect by using circular dichroism to bioassay the interaction of molecules with ion channels, including sodium channels. Likewise, this bioassay technique is applicable to the thiophene compounds of the present invention.
To perform this method, solubilized nerve cell membrane proteins and acetylcholinesterase are purified using ion exchange and size exclusion chromatography. Then, one forms a mixture of a nerve cell protein and a compound capable of blocking or preventing the normal function of preferably the sodium channel in an excitable cell, and subjects that mixture to circular dichroism at a wave length of […] wave length. The transition of molar ellipticity is measured while varying the temperature of the mixture between 25°-50° C. The transition of molar ellipticity of the mixture is compared with the transition of molar ellipticity of a control nerve cell protein without the compound capable of blocking or preventing the normal function of the sodium channel in an excitable cell. The alpha helix content, as measured at […], is used to monitor the effect of temperature change on the ion channel's conformational change.
However, when a sodium channel active molecule is added to the membrane preparation, the temperature-dependent helix transition observed using circular dichroism is altered. […] These compounds, therefore, seem to stabilize the helix conformation of the sodium channel and to prevent the temperature-dependent uncoiling of alpha helix between 30° C.-35° C.

B6C3FI mice = conditions: cited from earlier work
Fischer rats = conditions: cited from earlier work
[1] = system: Salmonella strains TA98, TA100, TA1535 and TA97; conditions: cited from earlier work
[2] = cardiac patients, routine therapeutic administration of lidocaine; cited from earlier work
mice = conditions: cited from earlier work
rats = conditions: cited from earlier work
animal = conditions: in vivo; cited from earlier work
[3] = surviving female mice, relative to controls

CC[C@@H]1C(=O)OC[C@@H]1Cc1cncn1C [Pilocarpine]
% Loss of Helix (35° to 40° C.) (sodium channel): 17.5%
% Loss of Helix (30° to 35° C.) (sodium channel): 7.1%
effect on alpha helix from 35° C. to 40° C. (sodium channel): the alpha helix uncoils to equal the helix in the control sample
effect on helical transition normally observed between 30°-35° C. (sodium channel): prevented the helical transition normally observed between 30°-35 °C

c1ccsc1 [thiophene]
survival (B6C3FI mice; female mice, 1000 ppm and 500 ppm): survived the study
female mice died as a result of exposures (B6C3FI mice; female mice, 2000 ppm): 2/10
mortality (B6C3FI mice; female mice, 8000 ppm and 4000 ppm): Total mortality
survival / mortality (B6C3FI mice; male mice, all exposure levels, single exposure): died or were terminated in moribund condition following a single exposure
microscopic pathology, hepatocytes (B6C3FI mice; mice that died early (within several hours after first exposure)): centrilobular degeneration of hepatocytes
microscopic pathology, cause of mortality (B6C3FI mice; mice): mortality was attributed to liver toxicity
other exposure-related microscopic lesions (B6C3FI mice; mice): No other exposure-related microscopic lesions were found
microscopic pathology, nose and nasal cavity (B6C3FI mice; mice, more severe in mice that survived the study): Necrotizing inflammation of the nose and nasal cavity
liver absolute and relative organ weights (liver-to-body and liver-to-brain weight ratios) (B6C3FI mice; [3]): increased relative to the controls
thymus organ weight parameters (B6C3FI mice; [3]): reduced
mean body weights or mean lung weights (B6C3FI mice; surviving female mice): did not affect mean body weights or mean lung weights
signs of toxicity (B6C3FI mice; surviving mice, 500 ppm and 1000 ppm): hypoactivity and abnormal posture
signs of toxicity (B6C3FI mice; surviving mice, 2000 ppm): dyspnea
microscopic pathology, hepatocytes (B6C3FI mice; surviving mice, all exposure levels): centrilobular necrosis of hepatocytes
absolute lung weight and lung to brain weight ratio (Fischer rats; all dose groups of both sexes surviving until study termination): decrease in the absolute lung weight and in the lung to brain weight ratio
mortality (Fischer rats; male rats, 2000 and 4000 ppm, first week): mortality also occurred in the 2000 and 4000 ppm male exposure groups
group mean body weight (Fischer rats; rats of both sexes, relative to control): dose-related depression in group mean body weight relative to control
clinical signs of toxicity (Fischer rats; rats, 4000 ppm): rough haircoat, ocular discharge, nasal discharge, dyspnea, and staggering gait
microscopic examination, lung (Fischer rats; rats, 4000 ppm): chronic active inflammation of the lung
mortality (Fischer rats; rats, 8000 ppm, one exposure): All rats exposed to 8000 ppm died following one exposure
microscopic examination, liver (Fischer rats; rats, all exposure groups, severity increasing with dose): necrotizing inflammation of the liver in all exposure groups with severity increasing with dose
toxicity to liver and lung (Fischer rats; summary of rat and mice studies, extremely high inhalation doses): shows toxicity to liver and lung
mutagenicity [1]: does not function as a mutagen in this assay

CCN(CC)CC(=O)Nc1c(C)cccc1C [Lidocaine]
2,6-xylidine in human serum hemoglobin adduct [2]: high levels of 2,6-xylidine
% Loss of Helix (35° to 40° C.) (sodium channel): 13.6%
% Loss of Helix (30° to 35° C.) (sodium channel): 1.8%
effect on alpha helix from 35° C. to 40° C. (sodium channel): the alpha helix uncoils to equal the helix in the control sample
effect on helical transition normally observed between 30°-35° C. (sodium channel): prevented the helical transition normally observed between 30°-35 °C

Cc1ccccc1N.Cl [ortho-toluidine hydrochloride]
carcinogenicity (mice): carcinogenic in rats and mice
carcinogenicity (rats): carcinogenic in rats and mice

Cc1cccc(C)c1N [2,6-xylidine]
carcinogenicity (animal): established animal and probable human carcinogen
